Reference: ChEMBL document CHEMBL2203034, “A new approach to explore the binding space of polysaccharide-based ligands: selectin antagonists” (ACS Med Chem Lett, 2012)

Tests used:
[1] = target: T1, P-selectin (Homo sapiens, UniProt P16109); assay: Inhibition of immobilized rhPSGL-Ig binding to soluble P-selectin by surface plasmon resonance competitive binding assay
T1 sequence (P16109 whole entry): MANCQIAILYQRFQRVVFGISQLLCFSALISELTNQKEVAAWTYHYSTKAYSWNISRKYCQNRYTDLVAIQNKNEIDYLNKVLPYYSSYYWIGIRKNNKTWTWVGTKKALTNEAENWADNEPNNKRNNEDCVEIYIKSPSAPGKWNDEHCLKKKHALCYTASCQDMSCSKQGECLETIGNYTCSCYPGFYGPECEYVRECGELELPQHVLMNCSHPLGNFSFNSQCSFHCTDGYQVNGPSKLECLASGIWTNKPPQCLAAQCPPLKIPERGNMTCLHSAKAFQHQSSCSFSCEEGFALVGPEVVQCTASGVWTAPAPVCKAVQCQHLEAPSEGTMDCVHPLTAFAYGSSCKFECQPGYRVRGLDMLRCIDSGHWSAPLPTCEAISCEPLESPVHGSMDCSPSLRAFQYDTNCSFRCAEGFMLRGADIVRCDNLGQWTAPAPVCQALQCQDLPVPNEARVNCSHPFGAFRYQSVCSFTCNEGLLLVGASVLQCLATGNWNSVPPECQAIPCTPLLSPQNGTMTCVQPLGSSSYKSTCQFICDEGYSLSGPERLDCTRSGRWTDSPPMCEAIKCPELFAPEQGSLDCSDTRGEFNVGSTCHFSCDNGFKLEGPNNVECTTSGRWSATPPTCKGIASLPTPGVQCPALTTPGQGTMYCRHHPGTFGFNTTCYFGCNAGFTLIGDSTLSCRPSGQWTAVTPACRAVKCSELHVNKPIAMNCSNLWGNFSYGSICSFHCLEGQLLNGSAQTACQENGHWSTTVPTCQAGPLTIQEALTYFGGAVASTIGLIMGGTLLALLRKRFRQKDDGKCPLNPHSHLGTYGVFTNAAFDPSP

[2] = target: T2, P-selectin (Homo sapiens) (UniProt P16109); assay: Ratio of compound IC50 to sialyl Lewisx IC50 for solube P-selectin by surface plasmon resonance competitive binding assay
T2 sequence (whole entry): T1 sequence (P16109 whole entry)

Row | Structure (SMILES) | IC50 [1] [µM] | Ratio IC50 [2]
1 | COC(=O)[C@H](O[C@@H]1O[C@@H](C)[C@@H](O)[C@@H](O)[C@@H]1O)[C@@H](O[C@@H]1O[C@H](CO)[C@H](OC(=O)c2ccccc2)[C@H](O[C@H](Cc2ccccc2)C(=O)O)[C@H]1O)C(=O)OC | 18 | 37
2 | COC(=O)[C@H](O[C@@H]1O[C@@H](C)[C@@H](O)[C@@H](O)[C@@H]1O)[C@@H](O[C@@H]1O[C@H](CO)[C@H](OC(=O)c2cccc3ccccc23)[C@H](O[C@H](Cc2ccccc2)C(=O)O)[C@H]1O)C(=O)OC | > 1000 | –
3 | COC(=O)[C@H](O[C@@H]1O[C@@H](C)[C@@H](O)[C@@H](O)[C@@H]1O)[C@@H](O[C@@H]1O[C@H](CO)[C@H](O)[C@H](OCC(=O)O)[C@H]1O)C(=O)OC | > 1000 | –
4 | COC(=O)[C@H](O[C@@H]1O[C@@H](C)[C@@H](O)[C@@H](O)[C@@H]1O)[C@@H](O[C@@H]1O[C@H](CO)[C@H](O)[C@H](O[C@H](Cc2ccccc2)C(=O)O)[C@H]1O)C(=O)OC | 880 | 0.75
